Data set [1] is described as follows: Aqueous solubility. It counts as physicochemical. The conditions noted are these: in water.
The conditions of data set [2]: both, human, in vivo. An excerpt:
This was an open-label, fixed-sequence study in 36 healthy subjects (17 males and 19 females).

In data set [3] the test system is Gaucher disease type 1 (GD1) patients. Nature of the data set: Phase 2 clinical trial in adults with Gaucher disease type 1. It counts as in vivo, human. As to conditions: 50 or 100 mg bid orally. The procedure: Patients were to have splenomegaly (volume […]) and either thrombocytopenia (platelets 45,000-100,000/mm^3) or anemia (hemoglobin 8-10 g/dl, female; 8-11 g/dl, male). None received enzyme replacement or substrate reduction therapy in the prior 12 months. The composite primary efficacy endpoint is […] (+0.5 g/dl) or platelet count (+15%) after 52 weeks of treatment. Liver volume, chitotriosidase, glucosylceramide are also assessed. Patients continue to be treated and monitored long-term.

The target of data set [4] is glycogen debranching enzyme (α-1,6-glucosidase) (Homo sapiens, UniProt P35573). Nature of the data set: Glycogen debranching enzyme cell free assay. It counts as biochemical. The procedure:
The specificity of Formula (I) Hemitartrate was evaluated in a series of in vitro cell-based and cell-free assays. The intestinal glycosidase enzymes were assayed in rat tissue homogenates (see U. Andersson, et al., Biochem. Pharm. 59 (2000) 821-829, the entire teachings of which are incorporated herein by reference), and the glycogen debranching enzyme was assayed in a cell free assay as described (see U. Andersson, et al., Biochem. Pharm. 67 (2004) 697-705, the entire teachings of which are incorporated herein by reference).

The results in this text go back to patent US10888547B2, “Amorphous and a crystalline form of genz 112638 hemitartrate as inhibitor of glucosylceramide synthase” (Genzyme Corporation, priority 2009, dated 2021).

Sequence of glycogen debranching enzyme (α-1,6-glucosidase) (P35573 whole entry, species assumed): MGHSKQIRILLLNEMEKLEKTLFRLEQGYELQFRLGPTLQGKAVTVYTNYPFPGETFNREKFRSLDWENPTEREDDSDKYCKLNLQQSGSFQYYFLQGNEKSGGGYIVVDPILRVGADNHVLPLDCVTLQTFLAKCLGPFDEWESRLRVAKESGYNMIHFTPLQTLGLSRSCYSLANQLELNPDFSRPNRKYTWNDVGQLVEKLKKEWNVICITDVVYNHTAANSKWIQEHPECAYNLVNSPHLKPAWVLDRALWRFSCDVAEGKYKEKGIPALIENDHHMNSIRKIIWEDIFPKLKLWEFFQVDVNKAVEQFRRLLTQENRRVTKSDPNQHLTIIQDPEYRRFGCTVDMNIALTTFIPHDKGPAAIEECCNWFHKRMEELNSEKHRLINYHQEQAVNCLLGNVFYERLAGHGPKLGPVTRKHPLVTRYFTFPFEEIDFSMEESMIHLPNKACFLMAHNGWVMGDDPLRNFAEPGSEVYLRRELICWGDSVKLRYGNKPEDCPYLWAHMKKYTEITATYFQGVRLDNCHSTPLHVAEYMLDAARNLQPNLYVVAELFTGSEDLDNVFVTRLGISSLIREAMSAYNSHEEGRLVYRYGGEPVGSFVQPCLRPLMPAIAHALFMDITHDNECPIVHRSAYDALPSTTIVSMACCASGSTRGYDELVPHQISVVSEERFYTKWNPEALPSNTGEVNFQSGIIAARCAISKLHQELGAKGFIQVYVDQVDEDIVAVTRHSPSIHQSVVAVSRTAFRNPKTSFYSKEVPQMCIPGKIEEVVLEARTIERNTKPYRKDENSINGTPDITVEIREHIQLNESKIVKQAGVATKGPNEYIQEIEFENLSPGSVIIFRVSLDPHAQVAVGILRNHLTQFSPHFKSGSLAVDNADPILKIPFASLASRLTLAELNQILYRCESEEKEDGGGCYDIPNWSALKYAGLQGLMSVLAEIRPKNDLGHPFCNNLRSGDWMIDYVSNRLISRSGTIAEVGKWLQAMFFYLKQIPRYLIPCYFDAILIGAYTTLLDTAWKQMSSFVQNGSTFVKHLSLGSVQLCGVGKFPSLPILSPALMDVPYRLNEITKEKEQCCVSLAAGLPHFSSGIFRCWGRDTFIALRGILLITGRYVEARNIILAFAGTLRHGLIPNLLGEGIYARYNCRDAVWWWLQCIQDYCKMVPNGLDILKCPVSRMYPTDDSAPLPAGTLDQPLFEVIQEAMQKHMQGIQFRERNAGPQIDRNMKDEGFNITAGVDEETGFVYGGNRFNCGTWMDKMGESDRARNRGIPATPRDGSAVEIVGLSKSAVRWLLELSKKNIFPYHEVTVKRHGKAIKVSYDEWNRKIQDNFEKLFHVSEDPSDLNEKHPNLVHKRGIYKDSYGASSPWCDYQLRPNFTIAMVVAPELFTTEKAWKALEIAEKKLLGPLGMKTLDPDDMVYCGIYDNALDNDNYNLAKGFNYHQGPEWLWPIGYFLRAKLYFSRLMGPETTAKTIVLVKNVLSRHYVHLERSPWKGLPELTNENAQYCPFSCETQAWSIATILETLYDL

Broadly, the Aqueous solubility is how much of the substance goes into solution per volume. Lower therefore signals little dissolved substance. By IC50 is commonly meant the point on the concentration scale where inhibition reaches its midpoint. With `CCCCCCCC(=O)N[C@H](CN1CCCC1)[C@H](O)c1ccc2c(c1)OCCO2` [Formula (I) Hemitartrate], the Aqueous solubility in data set [1] is recorded as more than 216 mg/mL. In addition, in data set [1] (listed as Formula I Hemitartrate), the Aqueous solubility entry is “over 300 mg/mL”. In addition, in data set [2], the “accumulation in AUC, repeated versus single dose administration” value is recorded as 2 fold; the “accumulation in Cmax, repeated versus single dose administration” value is reported as 2 fold; the “increase in AUC with concomitant paroxetine versus multiple-dose alone” value stood at 9 fold; the “increase in Cmax with concomitant paroxetine versus multiple-dose alone” value is reported as 7 fold. Further, the “tolerability and safety profile” value in data set [3] is given as “well tolerated”. Moreover, the “composite primary endpoint met (hemoglobin +0.5 g/dl or platelet count +15%)” value in data set [3] (52 weeks) is 19 of the 20. In data set [3] (Week 52), the mean (SD) change from baseline in chitotriosidase was -49.9%, the mean (SD) change from baseline in liver volume (multiples of normal) is -15.8%, the “mean (SD) change from baseline in platelet count” value was “+43.6% (137.59%)” and the mean (SD) change from baseline in spleen volume (multiples of normal) was -40.2%. Moreover, the related adverse events result in data set [3] (all mild and transient) is given as “Seven related adverse events in 6 patients”. For the same compound, in data set [3] (all patients), the “time after which plasma glucosylceramide levels normalized” value amounted to 4 weeks. Further, the “inhibition of cytosolic debranching enzyme (α-1,6-glucosidase)” value in data set [4] (concentrations up to 2500 μM) is “No detectable inhibition”. The IC50 in data set [4] (read-out: Enzyme specificities, IC50: Glycogen debranching enzyme) was more than 2.5 mM.
